Test results reported in patent US12679832B2, “Compounds and their uses as CD38 inhibitors” (Nanjing Immunophage Biotech Co., Ltd., priority 2021, dated 2026).

target: T1, hCD38 Enzyme (Homo sapiens, UniProt P28907); assay: CD38 hydrolase enzymatic assay; type: biochemical; details: rhCD38, ε-NAD substrate, 25° C., point reading time 20 mins; read-out: hCD38 Enzyme inhibition IC50
T1 construct: purchased Sino Biological Inc 10818-H08H
T1 sequence (P28907 43-300 limits assumed): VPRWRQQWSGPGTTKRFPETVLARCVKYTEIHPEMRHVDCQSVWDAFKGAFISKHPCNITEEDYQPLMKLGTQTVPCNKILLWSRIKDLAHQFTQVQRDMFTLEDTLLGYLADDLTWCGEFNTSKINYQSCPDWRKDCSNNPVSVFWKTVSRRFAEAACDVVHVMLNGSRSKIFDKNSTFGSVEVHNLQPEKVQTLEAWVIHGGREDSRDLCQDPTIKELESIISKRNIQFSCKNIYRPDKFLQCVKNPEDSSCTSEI
Description: Also, a blank sample was prepared with 50 μl of sucrose buffer and no test compounds.
The dynamic reading was performed at 25° C. with excitation light of 300 nm and emission light of 410 nm on the enzyme marker by contacting the above-prepared rhCD38 enzyme working fluid and the above-prepared solutions of the test compounds disclosed herein or the solution of the control. The readings were recorded for a total of 1 hour, and the data were analyzed with the point reading time of 20 mins.
Fluorescence was recorded by a microplate reader. Individual excel files containing fluorescence data were exported and the results were plotted against various drug concentrations and analyzed in GraphPad Prism 7.0 for concentration curve generation.

SMILES	IC50
Cc1cncn1-c1cncc(C(=O)NC2CCCCC2)n1 [compound 79, N-cyclohexyl-6-(5-methyl-1H-imidazol-1-yl)pyrazine-2-carboxamide]	2190 nM
O=C(NC1CCCCC1)c1cccc(-n2ccnc2)n1 [compound 49, N-cyclohexyl-6-(1H-imidazol-1-yl)picolinamide]	70 nM
O=C(Nc1ccccc1)c1cccc(-n2ccnc2)n1 [compound 81, 6-(1H-imidazol-1-yl)-N-phenylpicolinamide]	15 nM
CO[C@H]1CC[C@H](NC(=O)c2cc(-n3ccnn3)cc3cc[nH]c23)CC1 [compound 54, N-((1r,4r)-4-methoxycyclohexyl)-5-(1H-1,2,3-triazol-1-yl)-1H-indole-7-carboxamide]	6850 nM
CC(C)NC(=O)c1cncc(-n2ccnc2)n1 [compound 31, 6-(1H-imidazol-1-yl)-N-isopropylpyrazine-2-carboxamide]	394 nM
O=C(Nc1cccc(N2CCOCC2)c1)c1cc(C(F)(F)F)nc(-n2ccnc2)n1 [compound 177, 2-(1H-imidazol-1-yl)-N-(3-morpholinophenyl)-6-(trifluoromethyl) pyrimidine-4-carboxamide]	38 nM
O=C(Nc1cccc(F)c1)c1cc(OC2CCC2)nc(-n2ccnc2)n1 [compound 121, 6-cyclobutoxy-N-(3-fluorophenyl)-2-(1H-imidazol-1-yl)pyrimidine-4-carboxamide]	8 nM
CC(C)(C)NC(=O)c1cc(C(F)(F)F)nc(-n2ccnc2)n1 [compound 141, N-(tert-butyl)-2-(1H-imidazol-1-yl)-6-(trifluoromethyl) pyrimidine-4-carboxamide]	1030 nM
COCCOc1cc(F)cc(NC(=O)c2cc(C(F)(F)F)nc(-n3ccnc3)n2)c1 [Compound 182]	9.6 nM
CO[C@H]1CC[C@H](NC(=O)c2nc(-n3ccnc3)ccc2Cl)CC1 [compound 75, 3-chloro-6-(1H-imidazol-1-yl)-N-((1r,4r)-4-methoxycyclohexyl) picolinamide]	389 nM
O=C(Nc1cccc(Cl)c1)c1cc(C(F)(F)F)nc(-n2ccnc2)n1 [compound 124, N-(3-chlorophenyl)-2-(1H-imidazol-1-yl)-6-(trifluoromethyl) pyrimidine-4-carboxamide]	3 nM
O=C(Nc1cccc(F)c1)c1cc(N2CCOCC2)nc(-n2ccnc2)n1 [compound 114, N-(3-fluorophenyl)-2-(1H-imidazol-1-yl)-6-morpholinopyrimidine-4-carboxamide]	5 nM
O=C(Nc1cccc(F)c1)c1ccc(C(F)(F)F)c(-n2ccnc2)n1 [compound 160, N-(3-fluorophenyl)-6-(1H-imidazol-1-yl)-5-(trifluoromethyl) picolinamide]	317 nM
N#Cc1cc(C(=O)Nc2ccc(F)cc2)nc(-n2ccnc2)n1 [compound 187, 6-cyano-N-(4-fluorophenyl)-2-(1H-imidazol-1-yl)pyrimidine-4-carboxamide]	2 nM
Cc1ccccc1NC(=O)c1ccnc(-n2ccnc2)n1 [compound 83, 2-(1H-imidazol-1-yl)-N-(o-tolyl)pyrimidine-4-carboxamide]	132 nM
CO[C@H]1CC[C@H](NC(=O)c2cc(-n3ccnc3)nc(N)n2)CC1 [compound 21, 2-amino-6-(1H-imidazol-1-yl)-N-((1r,4r)-4-methoxycyclohexyl)pyrimidine-4-carboxamide]	8 nM
O=C(Nc1ccc(F)c(F)c1)c1cc(C(F)(F)F)nc(-n2ccnc2)n1 [compound 173, N-(3,4-difluorophenyl)-2-(1H-imidazol-1-yl)-6-(trifluoromethyl) pyrimidine-4-carboxamide]	6.8 nM
O=C(Nc1ccc(F)cc1)c1cc(C(F)(F)F)nc(-n2ccnc2)n1 [compound 172, N-(4-fluorophenyl)-2-(1H-imidazol-1-yl)-6-(trifluoromethyl) pyrimidine-4-carboxamide]	8.2 nM
CC(C)(C)NC(=O)c1cncc(-n2ccnc2)n1 [compound 34, N-(tert-butyl)-6-(1H-imidazol-1-yl)pyrazine-2-carboxamide]	3910 nM
O=C(Nc1ccccc1F)c1ccnc(-n2ccnc2)n1 [compound 84, N-(2-fluorophenyl)-2-(1H-imidazol-1-yl)pyrimidine-4-carboxamide]	13 nM
CO[C@H]1CC[C@H](NC(=O)c2cc(-n3ccnc3)cnc2N)CC1 [compound 59, 2-amino-5-(1H-imidazol-1-yl)-N-((1r,4r)-4-methoxycyclohexyl) nicotinamide]	> 10000 nM

SMILES	IC50
C[C@H]1CC[C@H](NC(=O)c2cc(N3CCCCC3)nc(-n3ccnc3)n2)CC1 [compound 147, 2-(1H-imidazol-1-yl)-N-((1r,4r)-4-methylcyclohexyl)-6-(piperidin-1-yl)pyrimidine-4-carboxamide]	70 nM
O=C(Nc1cccc(F)c1)c1nc(-n2ccnc2)ncc1N1CCCCC1 [compound 115, N-(3-fluorophenyl)-2-(1H-imidazol-1-yl)-5-(piperidin-1-yl) pyrimidine-4-carboxamide]	43 nM
O=C(Nc1ccccc1)c1ccnc(-n2ccnc2)n1 [compound 82, 2-(1H-imidazol-1-yl)-N-phenylpyrimidine-4-carboxamide]	3 nM
O=C(Nc1cc(F)cc(N2CCOCC2)c1)c1cc(C(F)(F)F)nc(-n2ccnc2)n1 [compound 176, N-(3-fluoro-5-morpholinophenyl)-2-(1H-imidazol-1-yl)-6-(trifluoromethyl) pyrimidine-4-carboxamide]	20 nM
CO[C@H]1CC[C@H](NC(=O)c2cc(N(C)C)nc(-n3ccnc3)n2)CC1 [compound 23, 6-(dimethylamino)-2-(1H-imidazol-1-yl)-N-((1r,4r)-4-methoxycyclohexyl)pyrimidine-4-carboxamide]	45 nM
COc1ccc(C(=O)N[C@H]2CC[C@H](OC)CC2)nc1-n1ccnc1 [compound 74, 6-(1H-imidazol-1-yl)-5-methoxy-N-((1r,4r)-4-methoxycyclohexyl) picolinamide]	4040 nM
CO[C@H]1CC[C@H](NC(=O)c2cc(-c3cncs3)ccc2NC(C)=O)CC1 [compound 6, 2-acetamido-N-((1r,4r)-4-methoxycyclohexyl)-5-(thiazol-5-yl) benzamide]	> 10000 nM
O=C(Nc1cccc(F)c1)c1cc(N2CCCCC2)nc(-n2ccnc2)n1 [compound 101, N-(3-fluorophenyl)-2-(1H-imidazol-1-yl)-6-(piperidin-1-yl)pyrimidine-4-carboxamide]	17 nM
CO[C@H]1CC[C@H](NC(=O)c2cc(C(F)(F)F)cc(-n3ccnc3)n2)CC1 [compound 53, 6-(1H-imidazol-1-yl)-N-((1r,4r)-4-methoxycyclohexyl)-4-(trifluoromethyl) picolinamide]	36 nM
O=C(Nc1cc(F)cc(N2CC[C@H](O)C2)c1)c1cc(C(F)(F)F)nc(-n2ccnc2)n1 [compound 178, (S)-N-(3-fluoro-5-(3-hydroxypyrrolidin-1-yl)phenyl)-2-(1H-imidazol-1-yl)-6-(trifluoromethyl) pyrimidine-4-carboxamide]	17.3 nM
CN1CCC(NC(=O)c2cncc(-n3ccnc3)n2)CC1 [compound 36, 6-(1H-imidazol-1-yl)-N-(1-methylpiperidin-4-yl)pyrazine-2-carboxamide]	9750 nM
O=C(Nc1cccnc1)c1ccnc(-n2ccnc2)n1 [compound 66, 2-(1H-imidazol-1-yl)-N-(pyridin-3-yl)pyrimidine-4-carboxamide]	1.7 nM
CO[C@H]1CC[C@H](NC(=O)c2cc(-n3ccnc3)cc(-n3ccnc3)n2)CC1 [compound 1, 4,6-di (1H-imidazol-1-yl)-N-((1r,4r)-4-methoxycyclohexyl)picolinamide]	29 nM
N#Cc1cc(C(=O)Nc2cccnc2)nc(-n2ccnc2)n1 [compound 186, 6-cyano-2-(1H-imidazol-1-yl)-N-(pyridin-3-yl)pyrimidine-4-carboxamide]	2 nM
C[C@H]1CC[C@H](NC(=O)c2cc(C(F)(F)F)cc(-n3ccnc3)n2)CC1 [compound 158, 6-(1H-imidazol-1-yl)-N-((1r,4r)-4-methylcyclohexyl)-4-(trifluoromethyl) picolinamide]	37 nM
COc1cc(C(=O)N[C@H]2CC[C@H](OC)CC2)nc(-n2ccnc2)c1 [compound 4, 6-(1H-imidazol-1-yl)-4-methoxy-N-((1r,4r)-4-methoxycyclohexyl)picolinamide]	40 nM
Cc1ccc(F)cc1NC(=O)c1cc(N2CCCCC2)nc(-n2ccnc2)n1 [compound 137, N-(5-fluoro-2-methylphenyl)-2-(1H-imidazol-1-yl)-6-(piperidin-1-yl)pyrimidine-4-carboxamide]	> 10000 nM
CO[C@H]1CC[C@H](NC(=O)c2nc(-n3ccnc3)ccc2N)CC1 [compound 60, 3-amino-6-(1H-imidazol-1-yl)-N-((1r,4r)-4-methoxycyclohexyl) picolinamide]	17 nM
CO[C@H]1CC[C@H](NC(=O)c2nc(-n3ccnc3)cnc2N)CC1 [compound 41, 3-amino-6-(1H-imidazol-1-yl)-N-((1r,4r)-4-methoxycyclohexyl) pyrazine-2-carboxamide]	13 nM
CO[C@H]1CC[C@H](NC(=O)c2nc(-n3ccnc3)ccc2O)CC1 [compound 71, 3-hydroxy-6-(1H-imidazol-1-yl)-N-((1r,4r)-4-methoxycyclohexyl) picolinamide]	73 nM
